Patent publication US8017128B2, “Cosmetic active ingredient composed of arginine ferrulate and a microalgae extract and its uses” (priority 2006, dated 2011)

Tests used:
[1] = system: thioredoxin reductase (TrxR); conditions: donor
Method: A volume corresponding to 50 μg of proteins of each cell extract is incubated with a mixture of HEPES, 80 mM pH 7.5, 0.9 mg/ml of NADPH, EDTA 6 mM, 2 mg/ml of insulin and 10 μM of Trx of E. coli, at 37° C. for 20 minutes in a final volume of 120 μL. The reaction is stopped by the addition of 500 μL of DTNB (dithio-bis-nitrobenzoic acid) (0.4 mg/ml) in guanidine hydrochloride 6 M/Tris-Cl 0.2 M (pH 8.0). A control sample containing everything except the Trx is incubated and treated in the same way as each sample.
The absorbance at 412 nm is measured and the value of the control subtracted from the value of the corresponding absorbance of the sample.
A standard curve is prepared using TrxR from purified calf thymus, with a defined specific activity.

[2] = system: thioredoxin; conditions: donor; NAC (10 mM) alone
[3] = system: glycated proteins; assay: Reduction in glycated proteins in treated cells; type: cell-based

In the case of `C=CC=O` [Acrolein], the “TrxR activity, % change vs control” value ([1]; Acrolein 25 μM alone) was −37% and the “TrxR Activity” value ([1]; Acrolein 25 μM in the culture medium, alone) was 130.8 ± 11.4 ng of TrxR/mg of total proteins.
In the case of `CC(=O)N[C@@H](CS)C(=O)O` [NAC, N-Acetyl-cysteine], the “Thioredoxin Level” value [2] was 59.8 ± 8.1 ng of Trx/mg of total proteins and the “Thioredoxin level, % change vs control” value [2] was −32%.
In the case of `COc1cc(/C=C/C(=O)O)ccc1O` [arginine ferulate], the “content required to inhibit 50% of the formation of glycated proteins in the cells” value [3] was 0.005%-0.02%.
